The numbers were not newly measured in patent publication US20130209380A1, “MOISTURIZING COMPOSITION WITH SPF 30” (GALDERMA S.A., priority 2010, published 2013), which cites them from elsewhere.

Structures are written as SMILES.

This data set has as its system stratum corneum. To be noted: In vitro human skin model.

Take `CCCCCCCCCCCCCCC[C@@H](O)[C@H](CO)NC(=O)C(O)CCCCCCCCCCCCCC` (some centres unmarked) [pseudo ceramide 5, N-(2-hydroxyhexadecanoyl)sphinganine]: the “affinity and diffusion into the stratum corneum” value is listed as “good”; the “effect on synthesis of ceramides 1-2-3” value is recorded as “induction synthesis of ceramides 1-2-3”.
